As usually defined, the Ki is a measure of affinity in units of concentration, obtained from inhibition or displacement. A lower Ki goes with a stronger hold on the target.

In experiment [1] the target is Plasma kallikrein (Homo sapiens, UniProt P03952). Nature of the experiment: Inhibitory activity of compound against human plasma Kallikrein (PK). The class given is cell-free.
For experiment [2], the target named is Kallikrein-1 (Homo sapiens, UniProt P06870). Put plainly: Inhibitory activity of compound against Tissue Kallikrein (TK).
Sequence of Kallikrein-1 (P06870 whole entry): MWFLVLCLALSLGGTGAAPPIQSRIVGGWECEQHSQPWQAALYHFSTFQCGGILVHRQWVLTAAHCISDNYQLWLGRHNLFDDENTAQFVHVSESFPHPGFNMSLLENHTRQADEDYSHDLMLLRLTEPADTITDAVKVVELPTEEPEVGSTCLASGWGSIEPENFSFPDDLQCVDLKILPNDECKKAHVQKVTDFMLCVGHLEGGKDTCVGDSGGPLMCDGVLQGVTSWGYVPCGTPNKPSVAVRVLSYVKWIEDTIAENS

Sequence of Plasma kallikrein (P03952 20-390 limits assumed): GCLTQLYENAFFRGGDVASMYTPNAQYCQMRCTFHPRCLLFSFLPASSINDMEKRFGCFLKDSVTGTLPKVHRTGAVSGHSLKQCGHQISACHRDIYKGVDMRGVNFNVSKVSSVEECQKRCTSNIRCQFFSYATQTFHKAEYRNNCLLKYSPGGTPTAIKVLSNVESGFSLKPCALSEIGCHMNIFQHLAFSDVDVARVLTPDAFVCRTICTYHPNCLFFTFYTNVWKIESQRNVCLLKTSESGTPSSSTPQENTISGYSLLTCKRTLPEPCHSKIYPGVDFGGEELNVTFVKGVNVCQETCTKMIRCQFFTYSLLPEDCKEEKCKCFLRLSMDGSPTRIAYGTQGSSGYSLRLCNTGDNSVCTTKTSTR
Sequence of Plasma kallikrein (P03952 391-638 limits assumed): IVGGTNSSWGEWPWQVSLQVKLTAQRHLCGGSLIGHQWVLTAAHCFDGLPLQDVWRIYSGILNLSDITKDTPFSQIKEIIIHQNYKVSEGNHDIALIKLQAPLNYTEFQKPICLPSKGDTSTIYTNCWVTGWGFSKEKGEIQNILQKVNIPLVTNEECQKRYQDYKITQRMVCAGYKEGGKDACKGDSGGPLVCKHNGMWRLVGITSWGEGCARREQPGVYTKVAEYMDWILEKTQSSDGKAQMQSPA

Regarding `CC(C)(C)[C@@H](NC(=O)N1CCOCC1)C(=O)NCC(=O)NC(Cc1ccc(NC(=N)N)cc1)C(=O)C(F)(F)F` (some centres undefined), the Ki is 15.5 µM in experiment [1] and greater than 150 µM in experiment [2].

`CC(C)(C)[C@@H](NC(=O)N1CCOCC1)C(=O)N[C@@H](Cc1ccccc1)C(=O)NC(Cc1ccc(NC(=N)N)cc1)C(=O)C(F)(F)F` (some centres undefined): the Ki in experiment [1] was 0.028 µM; in experiment [2] it was greater than 2500 µM.

With `CC(C)(C)[C@@H](NC(=O)OC12CC3CC(CC(C3)C1)C2)C(=O)N[C@H](C(=O)NC(Cc1ccc(NC(=N)N)cc1)C(=O)C(F)(F)F)c1ccc2ccccc2c1` (some centres undefined), the results for the Ki in experiment [1] and in experiment [2] were 0.5 µM and greater than 50 µM, respectively.

As to `N=C(N)Nc1ccc(CC(NC(=O)[C@H](Cc2ccccc2)NC(=O)[C@@H](CCc2ccccc2)NC(=O)OC23CC4CC(CC(C4)C2)C3)C(=O)C(F)(F)F)cc1` (some centres undefined), the Ki in experiment [1] was 0.004 µM; in experiment [2], 7 µM.

`CC(C)(C)OC(=O)N[C@H](Cc1ccccc1)C(=O)N[C@H](C(=O)NC(Cc1ccc(NC(=N)N)cc1)C(=O)C(F)(F)F)c1ccc2ccccc2c1` (some centres undefined): the Ki in experiment [1] came to 0.089 µM; in experiment [2], 223 µM.

In the case of `CC(C)[C@@H](NC(=O)OC12CC3CC(CC(C3)C1)C2)C(=O)N[C@@H](Cc1ccccc1)C(=O)NC(Cc1ccc(NC(=N)N)cc1)C(=O)C(F)(F)F` (some centres undefined), the Ki in experiment [1] was 0.005 µM; in experiment [2] it was 191 µM.

Consider `CC(C)(C)[C@@H](NC(=O)OC12CC3CC(CC(C3)C1)C2)C(=O)N[C@@H](Cc1ccccc1)C(=O)NC(Cc1ccc(NC(=N)N)cc1)C(=O)C(F)(F)F` (some centres undefined), for which the Ki amounted to 0.002 µM in experiment [1] and 47.3 µM in experiment [2].

The values are drawn from ChEMBL document CHEMBL1131912, “Synthesis of potent and selective inhibitors of human plasma kallikrein” (Bioorg Med Chem Lett, 1999).
